Source: BindingDB's records for doi:10.1124/jpet.104.068098 (University of Kentucky, 2004)

Legend:
[1] = biological target: Sodium-dependent dopamine transporter (Homo sapiens, UniProt Q01959)
[2] = biological target: Sodium-dependent serotonin transporter (Homo sapiens, UniProt P31645)
[3] = biological target: Sodium-dependent noradrenaline transporter (Homo sapiens, UniProt P23975)
Chain of Sodium-dependent noradrenaline transporter (P23975 whole entry): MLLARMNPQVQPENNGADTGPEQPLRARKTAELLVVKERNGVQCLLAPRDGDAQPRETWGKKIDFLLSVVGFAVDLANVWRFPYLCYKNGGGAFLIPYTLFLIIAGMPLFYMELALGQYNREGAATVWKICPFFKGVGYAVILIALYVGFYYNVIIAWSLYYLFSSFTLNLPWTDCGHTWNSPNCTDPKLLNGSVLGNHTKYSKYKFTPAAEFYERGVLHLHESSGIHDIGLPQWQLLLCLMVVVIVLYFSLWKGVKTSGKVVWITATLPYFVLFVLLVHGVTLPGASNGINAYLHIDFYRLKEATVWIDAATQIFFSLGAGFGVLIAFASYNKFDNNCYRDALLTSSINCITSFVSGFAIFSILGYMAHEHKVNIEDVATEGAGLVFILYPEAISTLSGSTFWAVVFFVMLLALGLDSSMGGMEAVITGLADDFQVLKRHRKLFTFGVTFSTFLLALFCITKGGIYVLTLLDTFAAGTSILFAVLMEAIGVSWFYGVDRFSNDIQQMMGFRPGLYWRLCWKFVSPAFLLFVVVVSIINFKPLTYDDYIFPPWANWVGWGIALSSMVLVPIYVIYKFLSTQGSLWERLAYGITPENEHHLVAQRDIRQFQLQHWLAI

Chain of Sodium-dependent dopamine transporter (Q01959 whole entry): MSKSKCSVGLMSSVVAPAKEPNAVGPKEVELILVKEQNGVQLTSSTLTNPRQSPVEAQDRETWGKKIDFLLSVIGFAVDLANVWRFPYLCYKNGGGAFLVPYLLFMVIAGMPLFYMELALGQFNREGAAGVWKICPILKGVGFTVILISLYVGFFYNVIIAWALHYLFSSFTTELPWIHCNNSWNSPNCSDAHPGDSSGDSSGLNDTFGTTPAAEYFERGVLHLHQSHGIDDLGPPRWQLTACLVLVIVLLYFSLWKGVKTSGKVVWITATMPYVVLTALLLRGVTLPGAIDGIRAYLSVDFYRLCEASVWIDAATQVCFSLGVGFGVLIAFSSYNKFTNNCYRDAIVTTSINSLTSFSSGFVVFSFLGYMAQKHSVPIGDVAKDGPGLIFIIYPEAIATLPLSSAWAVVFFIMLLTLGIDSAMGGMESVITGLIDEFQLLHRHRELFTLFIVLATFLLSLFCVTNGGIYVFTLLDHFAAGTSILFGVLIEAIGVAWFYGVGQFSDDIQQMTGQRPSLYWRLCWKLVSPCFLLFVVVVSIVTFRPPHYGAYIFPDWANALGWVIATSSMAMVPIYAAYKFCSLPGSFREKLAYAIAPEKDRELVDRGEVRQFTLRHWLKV
Chain of Sodium-dependent serotonin transporter (P31645 whole entry): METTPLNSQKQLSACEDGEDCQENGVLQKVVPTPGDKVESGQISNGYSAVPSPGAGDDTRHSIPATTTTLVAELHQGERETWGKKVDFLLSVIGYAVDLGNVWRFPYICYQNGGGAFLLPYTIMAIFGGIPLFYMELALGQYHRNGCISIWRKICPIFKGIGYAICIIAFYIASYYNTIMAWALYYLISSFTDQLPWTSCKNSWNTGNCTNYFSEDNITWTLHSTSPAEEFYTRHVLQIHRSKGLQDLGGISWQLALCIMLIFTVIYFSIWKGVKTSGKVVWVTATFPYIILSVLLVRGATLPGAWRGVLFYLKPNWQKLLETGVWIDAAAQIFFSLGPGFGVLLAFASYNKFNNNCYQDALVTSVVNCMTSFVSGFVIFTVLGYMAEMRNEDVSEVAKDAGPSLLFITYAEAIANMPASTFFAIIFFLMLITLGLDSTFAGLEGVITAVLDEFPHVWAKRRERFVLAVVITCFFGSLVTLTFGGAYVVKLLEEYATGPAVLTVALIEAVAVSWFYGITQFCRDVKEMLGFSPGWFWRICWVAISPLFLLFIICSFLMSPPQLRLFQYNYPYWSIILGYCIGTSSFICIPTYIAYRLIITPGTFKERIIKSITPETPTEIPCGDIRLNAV

SMILES	Ki [1] [nM]	Ki [2] [nM]	Ki [3] [nM]
CN1[C@@H](CCc2ccccc2)CCC[C@H]1CCc1ccccc1	97	530	1800
CN1[C@H](/C=C/c2ccccc2)CCC[C@@H]1/C=C/c1ccccc1	43	1890	277
CN1[C@@H](C[C@@H](O)c2ccccc2)CCC[C@H]1CC(=O)c1ccccc1 [Lobeline]	5400	> 10000	1870
